{"source": "paper PMC3608555", "about": "“The HopQ1 Effector’s Nucleoside Hydrolase-Like Domain Is Required for Bacterial Virulence in Arabidopsis and Tomato, but Not Host Recognition in Tobacco” (PLoS ONE, 2013)", "target": "RihB (MBP:RihB) (Escherichia coli, UniProt P33022)", "sequence (P33022 whole entry)": "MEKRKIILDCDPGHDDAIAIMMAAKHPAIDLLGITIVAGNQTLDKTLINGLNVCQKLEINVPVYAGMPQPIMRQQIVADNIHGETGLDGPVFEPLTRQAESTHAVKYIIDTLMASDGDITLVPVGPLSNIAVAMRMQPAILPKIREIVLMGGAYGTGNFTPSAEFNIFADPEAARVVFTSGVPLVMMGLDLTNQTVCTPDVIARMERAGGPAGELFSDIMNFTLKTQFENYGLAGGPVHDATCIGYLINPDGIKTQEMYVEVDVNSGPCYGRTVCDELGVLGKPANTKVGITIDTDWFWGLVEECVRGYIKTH", "conditions": "high activity, data not shown"}
{"smiles": "O=c1ccn([C@@H]2O[C@H](CO)[C@@H](O)[C@H]2O)c(=O)[nH]1", "note": "[uridine]", "values": [{"measurement": "nucleoside hydrolase activity assay", "result": "MBP:RihB showed high enzymatic activity for cytidine and uridine"}]}
